Reference: PubChem BioAssay (NCI)
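GI50 = concentration required for 50% inhibition of growth. TGI denotes the concentration required for complete inhibition of growth.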

Key:
Experiment in all cases: growth of human tumour cells (NCI), 384-well format
786-0 renal = system: 786-0 renal
A498 renal = system: A498 renal
A549 NSCLC = system: A549 NSCLC
ACHN renal = system: ACHN renal
BT-549 breast = system: BT-549 breast
CCRF-CEM leukemia = system: CCRF-CEM leukemia
COLO 205 colon = system: COLO 205 colon
DU-145 prostate = system: DU-145 prostate
HCC-2998 colon = system: HCC-2998 colon
HCT-116 colon = system: HCT-116 colon
HCT-15 colon = system: HCT-15 colon
HL-60(TB) leukemia = system: HL-60(TB) leukemia
HOP-62 NSCLC = system: HOP-62 NSCLC
HOP-92 NSCLC = system: HOP-92 NSCLC
HT29 colon = system: HT29 colon
IGROV1 ovarian = system: IGROV1 ovarian
K-562 leukemia = system: K-562 leukemia
KM12 colon = system: KM12 colon
LOX IMVI melanoma = system: LOX IMVI melanoma
MALME-3M melanoma = system: MALME-3M melanoma
MCF7 breast = system: MCF7 breast
MDA-MB-231 breast = system: MDA-MB-231 breast
MDA-MB-435 melanoma = system: MDA-MB-435 melanoma
MDA-MB-468 breast = system: MDA-MB-468 breast
MOLT-4 leukemia = system: MOLT-4 leukemia
NCI-H226 lung = system: NCI-H226 lung
NCI-H23 lung = system: NCI-H23 lung
NCI-H322M lung = system: NCI-H322M lung
NCI-H460 NSCLC = system: NCI-H460 NSCLC
NCI-H522 lung = system: NCI-H522 lung
NCI/ADR-RES ovarian = system: NCI/ADR-RES ovarian
OVCAR-3 ovarian = system: OVCAR-3 ovarian
OVCAR-4 ovarian = system: OVCAR-4 ovarian
OVCAR-5 ovarian = system: OVCAR-5 ovarian
OVCAR-8 ovarian = system: OVCAR-8 ovarian
PC-3 prostate = system: PC-3 prostate
RPMI-8226 leukemia = system: RPMI-8226 leukemia
RXF 393 renal = system: RXF 393 renal
SF-295 CNS = system: SF-295 CNS
SF-539 CNS = system: SF-539 CNS
SK-MEL-2 melanoma = system: SK-MEL-2 melanoma
SK-MEL-28 melanoma = system: SK-MEL-28 melanoma
SK-MEL-5 melanoma = system: SK-MEL-5 melanoma
SK-OV-3 ovarian = system: SK-OV-3 ovarian
SN12C renal = system: SN12C renal
SNB-19 CNS = system: SNB-19 CNS
SR leukemia = system: SR leukemia
SW-620 colon = system: SW-620 colon
T-47D breast = system: T-47D breast
TK-10 renal = system: TK-10 renal
U251 glioblastoma = system: U251 glioblastoma
UACC-257 melanoma = system: UACC-257 melanoma
UACC-62 melanoma = system: UACC-62 melanoma
UO-31 renal = system: UO-31 renal

For `Cc1sc2c(c1C)C(c1ccc(Cl)cc1)=N[C@@H](CC(=O)Nc1ccc(OCCOCCOCCOCCNc3cccc4c3C(=O)N(C3CCC(=O)NC3=O)C4=O)cc1)c1nnc(C)n1-2` (stereo partly drawn), the GI50 ([…]-0 renal) was 44.4 nM, the TGI (786-0 renal) was 810 nM and the GI50 (A498 renal) was 166 nM. The TGI (A498 renal) was > 100000 nM, the GI50 (A549 NSCLC) was 36.1 nM and the TGI (A549 NSCLC) was > 100000 nM. For the same compound, the GI50 (ACHN renal) was 534 nM, the TGI (ACHN renal) was > 100000 nM and the GI50 (BT-549 breast) was < 10 nM. The TGI (BT-549 breast) was < 10 nM, the GI50 (CCRF-CEM leukemia) was < 10 nM and the TGI (CCRF-CEM leukemia) was 11.9 nM. The GI50 (COLO 205 colon) was 10.7 nM, the TGI (COLO 205 colon) was 44.6 nM and the GI50 (DU-145 prostate) was 624 nM. For the same compound, the TGI (DU-145 prostate) was 16100 nM, the GI50 (HCC-2998 colon) was < 10 nM and the TGI (HCC-2998 colon) was 21.7 nM. The GI50 (HCT-116 colon) was 56.8 nM, the TGI (HCT-116 colon) was 13600 nM and the GI50 (HCT-15 colon) was 121 nM. For the same compound, the TGI (HCT-15 colon) was 278 nM, the GI50 (HL-60(TB) leukemia) was < 10 nM and the TGI (HL-60(TB) leukemia) was < 10 nM. For the same compound, the GI50 (HOP-62 NSCLC) was 22.4 nM, the TGI (HOP-62 NSCLC) was 75.5 nM and the GI50 (HOP-92 NSCLC) was 25.3 nM. It also gave a TGI (HOP-92 NSCLC) of 291 nM, a GI50 (HT29 colon) of 106 nM and a TGI (HT29 colon) of 434 nM. For the same compound, the GI50 (IGROV1 ovarian) was 26.5 nM, the TGI (IGROV1 ovarian) was 123 nM and the GI50 (K-562 leukemia) was 54 nM. The TGI (K-562 leukemia) was 87100 nM, the GI50 (KM12 colon) was 37.4 nM and the TGI (KM12 colon) was > 100000 nM. The GI50 (LOX IMVI melanoma) was 68.4 nM, the TGI (LOX IMVI melanoma) was 203 nM and the GI50 (MALME-3M melanoma) was 133 nM. For the same compound, the TGI (MALME-3M melanoma) was 326 nM, the GI50 (MCF7 breast) was < 10 nM and the TGI (MCF7 breast) was 40.3 nM. The GI50 (MDA-MB-231 breast) was < 10 nM, the TGI (MDA-MB-231 breast) was 24 nM and the GI50 (MDA-MB-435 melanoma) was 31.6 nM. The TGI (MDA-MB-435 melanoma) was 166 nM, the GI50 (MDA-MB-468 breast) was 15.2 nM and the TGI (MDA-MB-468 breast) was 39.9 nM. For the same compound, the GI50 (MOLT-4 leukemia) was < 10 nM, the TGI (MOLT-4 leukemia) was 19.8 nM and the GI50 (NCI-H226 lung) was 31.5 nM. It also gave a TGI (NCI-H226 lung) of 131 nM, a GI50 (NCI-H23 lung) of 182 nM and a TGI (NCI-H23 lung) of 443 nM. It also gave a GI50 (NCI-H322M lung) of 16.4 nM, a TGI (NCI-H322M lung) of 78.9 nM and a GI50 (NCI-H460 NSCLC) of 380 nM. For the same compound, the TGI (NCI-H460 NSCLC) was > 100000 nM, the GI50 (NCI-H522 lung) was 37.1 nM and the TGI (NCI-H522 lung) was 182 nM. For the same compound, the GI50 (NCI/ADR-RES ovarian) was 21800 nM, the TGI (NCI/ADR-RES ovarian) was > 100000 nM and the GI50 (OVCAR-3 ovarian) was 69.1 nM. The TGI (OVCAR-3 ovarian) was 431 nM, the GI50 (OVCAR-4 ovarian) was 15.2 nM and the TGI (OVCAR-4 ovarian) was 34.1 nM. For the same compound, the GI50 (OVCAR-5 ovarian) was 42.8 nM, the TGI (OVCAR-5 ovarian) was 1470 nM and the GI50 (OVCAR-8 ovarian) was < 10 nM. For the same compound, the TGI (OVCAR-8 ovarian) was 18.7 nM, the GI50 (PC-3 prostate) was 15.3 nM and the TGI (PC-3 prostate) was > 100000 nM. The GI50 (RPMI-8226 leukemia) was < 10 nM, the TGI (RPMI-8226 leukemia) was < 10 nM and the GI50 (RXF 393 renal) was 34.9 nM. It also gave a TGI (RXF 393 renal) of 96.2 nM, a GI50 (SF-295 CNS) of 131 nM and a TGI (SF-295 CNS) of 550 nM. For the same compound, the GI50 (SF-539 CNS) was 90.4 nM, the TGI (SF-539 CNS) was 1120 nM and the GI50 (SK-MEL-2 melanoma) was < 10 nM. For the same compound, the TGI (SK-MEL-2 melanoma) was 25.5 nM, the GI50 (SK-MEL-28 melanoma) was 130 nM and the TGI (SK-MEL-28 melanoma) was 799 nM. For the same compound, the GI50 (SK-MEL-5 melanoma) was 30 nM, the TGI (SK-MEL-5 melanoma) was 118 nM and the GI50 (SK-OV-3 ovarian) was 76.5 nM. For the same compound, the TGI (SK-OV-3 ovarian) was 228 nM, the GI50 (SN12C renal) was 37.6 nM and the TGI (SN12C renal) was > 100000 nM. The GI50 (SNB-19 CNS) was 51.6 nM, the TGI (SNB-19 CNS) was > 100000 nM and the GI50 (SR leukemia) was 19.4 nM. The TGI (SR leukemia) was 69 nM, the GI50 (SW-620 colon) was 33.5 nM and the TGI (SW-620 colon) was > 100000 nM. For the same compound, the GI50 (T-47D breast) was < 10 nM, the TGI (T-47D breast) was < 10 nM and the GI50 (TK-10 renal) was 190 nM. The TGI (TK-10 renal) was > 100000 nM, the GI50 (U251 glioblastoma) was 186 nM and the TGI (U251 glioblastoma) was 80100 nM. For the same compound, the GI50 (UACC-257 melanoma) was 179 nM, the TGI (UACC-257 melanoma) was 28200 nM and the GI50 (UACC-62 melanoma) was 34.7 nM. The TGI (UACC-62 melanoma) was 162 nM, the GI50 (UO-31 renal) was 305 nM and the TGI (UO-31 renal) was > 100000 nM.
